The test system of one series is SMN protein. The following applies: cell-based assays and patients; cited from earlier work.
A further series deals with SMA patients. The conditions noted are these: clinical trials; cited from earlier work.
Series [1] has as its system NF2 deficiency in primary human cells. In words: Primary drug screens on NF2 loss-of-function model. It counts as cell-based. The following applies: for rescue of NF2 loss-of-function phenotype: primary screen. The text has this: To identify novel and effective treatments for NF2, a loss-of-function model of the disease in a primary human cells and screened for molecules that rescue the disease-specific phenotype. […] These figures illustrate results from a series of primary drug screens to identify drug candidates for NF2 from a library of approximately 2000 small molecules. Scores for control perturbations (largely clustered in region 1102), test perturbations (largely clustered in region 1104), and query perturbations (largely clustered in region 1106), are shown in the plots. A small number of hits were algorithmically selected based on their effects in the assay and used for further screening.

Series [2] has as its system ATM deficiency in A549 cells.
Excerpt: (§1) Hits were algorithmically selected based on effect and screened with a higher replicate count in a tertiary screen. […] The length of the wider green bars, such as bar 910, represents changes in individual features of increasing or decreasing magnitude that best represent the ATM disease signature. The impact of each drug on individual features is overlaid in a second, narrower red shaded bar, such as bar 911. […] The order of the features was randomized between individual plots, and individual feature labels are omitted. […] Western blots probed for ATM and phosphorylated Chk2. […] The lower plots represent quantification of phosphorylated Chk2 from the Western Blot, n=3. H=Healthy; *denotes p<0.05, two-sided paired ratio t-test.
(§2) Small molecule compounds were then tested on the A-T disease model using the screening methods described herein.
In another series the test system is patients with NF2. The following applies: Phase 2 study; cited from earlier work.
The subject of series [3] is Chk2 phosphorylation in primary fibroblasts derived from a patient with A-T. In words: Western blot for phosphorylated Chk2 in primary fibroblasts from a patient with A-T. It counts as cell-based, human. The following applies: H2O2. For orientation: Immunoblotting shows a protein as a band on a membrane.
Series [4] deals with ATM deficiency in A549 cells. Description: Cell Painting phenotypic screen on the A-T disease model (on-target/off-target scores). The conditions noted are these: ATM disease signature, FIG. 9B.
Excerpt: as §1, §2
Series [5] relates to Chk2 phosphorylation in ATM knockdown A549 cells. In words: Western blot for phosphorylated Chk2 in siRNA transfected A549 cells treated with H2O2. In kind it is cell-based. The following applies: H2O2 treatment. As for the experimental part: Glucocorticoids are identified by the dashed red polygon 901. […] Western blots probed for ATM and phosphorylated Chk2.
To further validate these compounds, disease-specific studies were performed. In response to DNA damage, ATM stimulates phosphorylation of a host of target proteins, including the checkpoint kinase Chk2. As expected, it was observed that siRNA-mediated knockdown of ATM mRNA in the A549 model cell-line suppressed phosphorylation of Chk2 after H2O2 treatment. Moreover, most glucocorticoids tested restored Chk2 phosphorylation to nearly 50% of control levels, with betamethasone and dexamethasone showing the least rescue (FIG. 9C).

Each structure is given as a SMILES string. Entries after “also recorded” stand apart in the source; their conditions may differ.

Regarding `CCCC(CCC)C(=O)O` [Valproic acid], in the series with SMN protein, the SMN protein level entry is “increases full length SMN protein”. For the same compound, the “clinical improvement in SMA” value with SMA patients is reported as “modest clinical improvement”.
In the case of `CCN(CC)CCNC(=O)c1c(C)[nH]c(/C=C2\C(=O)Nc3ccc(F)cc32)c1C` [Sunitinib, sunitinib], in series [1], the “side-effect profile in NF2 screen” value was “minimal increase in side-effect profile”.
Consider `C[C@H]1C[C@H]2[C@@H]3CCC4=CC(=O)C=C[C@]4(C)[C@@]3(F)[C@@H](O)C[C@]2(C)[C@@]1(O)C(=O)CO` [betamethasone], for which the “side effect profile (off-target score) in the screen” value in series [2] is on record as “greater side effects”.
`CS(=O)(=O)CCNCc1ccc(-c2ccc3ncnc(Nc4ccc(OCc5cccc(F)c5)c(Cl)c4)c3c2)o1` [lapatinib]: in the series on patients with NF2, the “clinical efficacy in NF2 / meningioma” value is “antitumor activity in a subset of patients” and the “tolerability in patients with NF2” value is listed as “well tolerated”.
Turning to `C[C@@H]1C[C@H]2[C@@H]3CCC4=CC(=O)C=C[C@]4(C)[C@@]3(Cl)[C@@H](O)C[C@]2(C)[C@@]1(O)C(=O)CCl` [mometasone], the “rescue of Chk2 phosphorylation in primary patient-derived cells” value in series [3] is on record as “dose-dependent rescue of Chk2 phosphorylation; also recorded: dose-dependent increase in Chk2 phosphorylation”. Also, in series [4], the “impact on the twenty most prominent phenotypic disease features” value is “rescues a subset of features”. The “rescue of Chk2 phosphorylation associated with ATM deficiency” value in series [5] is on record as “better rescue ATM deficiency”; in series [5] (listed as Mometasone), “superior P-Chk2 rescue”.
Turning to `CNC(=O)c1cccc(-c2ccc3c(N4CCOC[C@@H]4C)nc(N4CCOC[C@@H]4C)nc3n2)c1` [AZD2014], in series [1], the “side-effect profile in NF2 screen” value was “elevated side-effect profile compared to another highly selective mTOR inhibitor” and the “rescue of NF2 loss-of-function phenotype” value is recorded as “strong rescue”.
`CO[C@H]1C[C@@H]2CC[C@@H](C)[C@@](O)(O2)C(=O)C(=O)N2CCCC[C@H]2C(=O)O[C@H]([C@H](C)C[C@@H]2CC[C@@H](OCCO)[C@H](OC)C2)CC(=O)[C@H](C)/C=C(\C)[C@@H](O)[C@@H](OC)C(=O)[C@H](C)C[C@H](C)/C=C/C=C/C=C/1C` [everolimus]: the “rescue of NF2 loss-of-function phenotype” value in series [1] was “minimal efficacy”. For the same compound, the “clinical efficacy in NF2 / meningioma” value with patients with NF2 is reported as “failed to demonstrate efficacy”.

The values are drawn from US12170135B2, “Systems and methods for evaluating query perturbations” (Recursion Pharmaceuticals, Inc., priority 2019, dated 2024).
